Test results published in patent publication US20170197996A1, “Cholinesterase Inhibitors” (priority 2012, published 2017).

Tested on: acetylcholinesterase
Assay type: in vivo, rat
Conditions: Trials C, D; 0.030 mg/Kg dose 10 min prior to tracer; FIG. 11, FIG. 12 vs FIG. 8

Compound: CCOP(=O)(OCC)Oc1ccc([N+](=O)[O-])cc1 [paraoxon]
- reduction of tracer [^18F]-6 SUV radioactivity signals across all brain ROIs: significant reduction of SUV radioactivity signals
